The target in series [1] is T1, XoxF1 MDH (XoxF1-La) (Methylorubrum extorquens, UniProt C5B120).
T1 construct: C-terminal hexahistidine tag with rTEV site, tag cleaved; 1:1 La3+ per protomer, PQQ-containing
T1 sequence (C5B120 22-601): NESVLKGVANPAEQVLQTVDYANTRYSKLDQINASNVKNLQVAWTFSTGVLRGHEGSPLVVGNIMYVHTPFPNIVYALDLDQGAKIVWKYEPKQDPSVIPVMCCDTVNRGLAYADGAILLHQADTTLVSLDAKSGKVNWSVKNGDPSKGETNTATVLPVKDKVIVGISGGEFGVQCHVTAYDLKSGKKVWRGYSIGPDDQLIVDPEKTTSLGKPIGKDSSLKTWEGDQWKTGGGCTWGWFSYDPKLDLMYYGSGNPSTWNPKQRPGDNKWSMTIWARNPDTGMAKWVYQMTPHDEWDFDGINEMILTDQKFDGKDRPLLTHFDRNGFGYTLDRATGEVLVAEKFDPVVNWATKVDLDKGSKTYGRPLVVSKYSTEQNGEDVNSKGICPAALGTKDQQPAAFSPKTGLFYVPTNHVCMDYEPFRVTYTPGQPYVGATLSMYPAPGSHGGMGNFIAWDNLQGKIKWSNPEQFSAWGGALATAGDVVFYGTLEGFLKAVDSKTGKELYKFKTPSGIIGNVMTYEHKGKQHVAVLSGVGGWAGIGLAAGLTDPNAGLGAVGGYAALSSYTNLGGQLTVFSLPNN
As to the kind of experiment: UV-visible spectroscopy of purified enzyme. Type of series: binding. Conditions: co-purified prosthetic group.

Series [2] concerns the target T1, XoxF1 MDH (XoxF1-La). The series is described as follows: PMS-mediated DCPIP reduction at […] nm, Michaelis-Menten fit. Type of series: biochemical. Conditions: La3+-loaded enzyme (1:1), PQQ; PMS/DCPIP as electron acceptors.
The target of series [3] is T2, ExaF (ExaF-La, Ln-dependent ethanol dehydrogenase) (Methylorubrum extorquens, UniProt C5AXV8).
T2 construct: native enzyme in cell-free extract of MDH-3 mutant grown with methanol and La3+
T2 sequence (C5AXV8 27-587): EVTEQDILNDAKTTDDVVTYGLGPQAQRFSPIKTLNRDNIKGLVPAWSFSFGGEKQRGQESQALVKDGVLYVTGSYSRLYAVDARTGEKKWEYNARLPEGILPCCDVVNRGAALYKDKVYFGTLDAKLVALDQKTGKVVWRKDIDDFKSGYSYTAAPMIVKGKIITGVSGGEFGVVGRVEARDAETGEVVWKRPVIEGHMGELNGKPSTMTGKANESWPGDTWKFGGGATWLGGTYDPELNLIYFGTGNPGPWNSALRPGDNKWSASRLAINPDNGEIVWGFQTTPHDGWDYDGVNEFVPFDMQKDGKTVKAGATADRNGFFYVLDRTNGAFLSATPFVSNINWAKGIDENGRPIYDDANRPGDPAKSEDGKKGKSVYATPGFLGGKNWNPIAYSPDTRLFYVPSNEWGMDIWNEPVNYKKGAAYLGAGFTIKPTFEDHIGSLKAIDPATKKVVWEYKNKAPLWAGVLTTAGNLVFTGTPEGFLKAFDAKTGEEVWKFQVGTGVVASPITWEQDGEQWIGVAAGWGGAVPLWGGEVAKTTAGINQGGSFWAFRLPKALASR
The series is described as follows: PMS-mediated DCPIP reduction in cell-free extract. Type of series: biochemical. Conditions: MDH-3 mutant strain (lacks MxaF, XoxF1, XoxF2), grown with methanol and La3+.

Substrate in the series “purified protein”: CCO
The series is described as follows: purified protein. Conditions: La3+-loaded enzyme (1:1), PQQ; PMS/DCPIP as electron acceptors.

Regarding `O=C(O)c1cc(C(=O)O)c2c(n1)C(=O)C(=O)c1cc(C(=O)O)[nH]c1-2` [PQQ], the molar ratio result at XoxF1 MDH (XoxF1-La) [1] is “PQQ was detected as a prosthetic group via UV-visible spectroscopy”. As for `C=O` [formaldehyde], the Km at XoxF1 MDH (XoxF1-La) [2] amounted to 0.096 ± 0.006 mM. For the same molecule, the specific activity result in series [3] is “confirming that ExaF can oxidize formaldehyde in vivo”. As for `CO` [methanol], at XoxF1 MDH (XoxF1-La) [2], the Km is 0.044 ± 0.005 mM.

B1: XoxF1 MDH (XoxF1-La) (Methylorubrum extorquens AM1) (protein)
chain: NESVLKGVANPAEQVLQTVDYANTRYSKLDQINASNVKNLQVAWTFSTGVLRGHEGSPLVVGNIMYVHTPFPNIVYALDLDQGAKIVWKYEPKQDPSVIPVMCCDTVNRGLAYADGAILLHQADTTLVSLDAKSGKVNWSVKNGDPSKGETNTATVLPVKDKVIVGISGGEFGVQCHVTAYDLKSGKKVWRGYSIGPDDQLIVDPEKTTSLGKPIGKDSSLKTWEGDQWKTGGGCTWGWFSYDPKLDLMYYGSGNPSTWNPKQRPGDNKWSMTIWARNPDTGMAKWVYQMTPHDEWDFDGINEMILTDQKFDGKDRPLLTHFDRNGFGYTLDRATGEVLVAEKFDPVVNWATKVDLDKGSKTYGRPLVVSKYSTEQNGEDVNSKGICPAALGTKDQQPAAFSPKTGLFYVPTNHVCMDYEPFRVTYTPGQPYVGATLSMYPAPGSHGGMGNFIAWDNLQGKIKWSNPEQFSAWGGALATAGDVVFYGTLEGFLKAVDSKTGKELYKFKTPSGIIGNVMTYEHKGKQHVAVLSGVGGWAGIGLAAGLTDPNAGLGAVGGYAALSSYTNLGGQLTVFSLPNN
For the molecule B1, in the series “purified protein”, the Km is 67 ± 3 µM, the Vmax was 6.21 µmol/min/mg and the kcat/Km is 194000 M⁻¹ s⁻¹.
